The nature of the series: gradient 5% acetonitrile 3 min, to 50% in 2 min, to 85% in 15 min, held 3 min, 100 µL/min. Particulars: column: Zorbax Extend-C18 2.1 x 50 mm; eluents: water / acetonitrile, 0.1% formic acid. Put shortly:
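The mobile phases were water and acetonitrile, each with 0.1% formic acid, pumped at 100 μL/min through a Zorbax Extend-C18 column (2.1 × 50 mm, 1.8 μm). Pure standards were injected as mixtures of ~100 molecules and detected by a quadrupole time-of-flight mass spectrometer in positive and negative ionization mode. Retention time came from computationally picked adduct peaks, each inspected by hand.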
On to `O=C(NCc1cccs1)c1ccc2c(c1)CC(=O)N2Cc1ccccc1`, for which the RP-LC retention time stood at 817 s.
The same measure for `COc1cccc(-c2nn3c(CSc4ccccc4)nnc3s2)c1`: 993 s.
Next, `COc1ccc(-c2nc(Cn3ccn4nc(-c5ccccc5OC)cc4c3=O)c(C)o2)cc1`: 1100 s.
Next, `Cc1nc2nc(-c3ccccc3)nn2c(C)c1CC(=O)N(CCO)Cc1ccccc1`: 740 s; `COCCNC(=O)c1nnn(-c2ccc(F)cc2)c1-c1ccncc1`: 663 s; `COc1ccccc1NC(=O)N1CCCC(Cn2cnc3cccnc32)C1` (stereo not drawn): 667 s.
Molecule `CC(C)C(NC(=O)NCc1ccc(F)cc1)C(=O)N1CCc2ccccc21` (stereo not drawn) had an RP-LC retention time of 917 s.
On to `CC(=O)Nc1ccc(CCc2nc3ccc(C(=O)NC4CC4)cc3[nH]2)cc1`, for which the RP-LC retention time came out at 893 s.
Regarding `COc1ccc(NC(=O)c2ccc(C(=N)N(C)C)cc2)c(C(=O)Nc2ccc(Cl)cn2)c1`, the RP-LC retention time came out at 725 s.
Next, `c1nc(NC2CCCCCC2)c2[nH]cnc2n1`: 564 s.
The same measure for `Cc1ccc(Nc2c(-c3cccc(Br)c3)nc3ccc(Br)cn23)cc1`: 1140 s.
The same measure for `O=C(Cc1csc2nc(-c3ccccc3)cn12)NCCC1=CCCCC1`: 864 s.
The molecule `CC1CCCCN1CCNS(=O)(=O)c1ccccc1-c1nc(-c2ccc(F)cc2)no1` (stereo not drawn) yielded an RP-LC retention time of 755 s.
Next, `Cc1ccc(-n2nc(C)c(S(=O)(=O)N3CCN(c4ccccn4)CC3)c2C)cc1`: 721 s; `Cn1cc(CCNC(=O)Nc2ccc3c(c2)OCCO3)c2cccnc21`: 639 s; `Cc1noc(-c2cc(=O)n(CC(=O)Nc3cccc(C#N)c3)c3ccccc23)n1`: 831 s.
Take `COc1ccc(-c2cn3c(CC(=O)Nc4ccc(C(F)(F)F)cc4)csc3n2)cc1OC`: the RP-LC retention time was 846 s.
The same measure for `Cc1cccn2c(Nc3ccc4c(c3)OCCO4)c(-c3ccc(O)cc3)nc12`: 642 s; for `COc1ccc(CN2CCN(C(=O)CCC(=O)N3CCCn4nc(C)cc43)CC2)c(OC)c1OC`: 595 s.
In turn, `Cn1cnnc1SCC(=O)N1CCCCCC1` gave an RP-LC retention time of 581 s.
Next, `CC(C)(C)CC(=O)NCCn1c(=O)n(Cc2ccc(F)cc2)c2cccnc21`: 808 s.
Molecule `Cc1ccc(S(=O)(=O)N2C(=O)CCC2C(=O)Nc2cc(C)ccc2C)cc1` (stereo not drawn) had an RP-LC retention time of 939 s.
Consider `COc1cc(NC(=O)N2CCN(CCn3c(C(F)(F)F)nc4cccnc43)CC2)cc(OC)c1`, for which the RP-LC retention time is 642 s.
Molecule `Cc1ccc(CNC(=O)C2c3ccccc3CC(=O)N2C)o1` (stereo not drawn) returned an RP-LC retention time of 693 s.
The same measure for `Cc1cc(S(=O)(=O)N2[C@H]3CC[C@@H]2c2cnc(-c4ccccc4)nc2C3)ccc1F`: 1090 s.
The same measure for `COc1ccc(/C(=N/O)C(c2ccc(OC)cc2)C2C(=O)Oc3ccccc32)cc1` (stereo not drawn): 840 s.
The same measure for `O=S(=O)(c1c(Cl)cccc1Cl)N1CCN(Cc2ccc3c(c2)OCO3)CC1`: 595 s.
`O=C(CSc1ccc(F)cc1)NCC(O)(c1ccccc1)C(F)(F)F` (stereo not drawn) returned an RP-LC retention time of 887 s.
The same measure for `C=CCNC(=O)N1CCCN(C2=NS(=O)(=O)C(c3ccc(CC)cc3)=C2C)CC1`: 790 s; for `COc1ccc(C(=O)NC2c3ccccc3-c3ccccc32)cc1OC`: 861 s.
Next, `Cc1cccc(NC(=O)C2CCCN(c3ncnc4c3oc3ccccc34)C2)c1` (stereo not drawn): 845 s.
The same measure for `CCCCN(C(=O)c1ccc(S(=O)(=O)N2CCOCC2)cc1)C1CCS(=O)(=O)C1` (stereo not drawn): 687 s; for `O=C(Cn1cnc2c(nc3n2CCCCC3)c1=O)N1CCN(Cc2ccc3c(c2)OCO3)CC1`: 588 s.
In turn, `CCCCOC(=O)CC1C(=O)NCCN1C(=O)c1cc(Br)ccc1OCC` (stereo not drawn) had an RP-LC retention time of 841 s.
Next, `COc1ccc(C(=O)Nc2cc(C(=O)O)ccc2N2CCN(c3ncccn3)CC2)cc1`: 836 s; `CCC(CC)C(=O)NCCc1nc2cccnc2n1-c1ccccc1`: 744 s; `COc1ccc(N2CC(c3nc(-c4ccc5c(c4)OCO5)no3)CC2=O)cc1` (stereo not drawn): 891 s.
`CCOC(=O)CC1(NC(=O)N2CCCn3nc(-c4ccncc4)cc3C2)CCCCC1` showed an RP-LC retention time of 595 s.
The same measure for `Cc1ccc2oc(CN3CCN(C(=O)Nc4ccccc4F)CC3)nc2c1`: 699 s; for `COc1ccc(-c2nc3nc(C)cc(C)n3c2Nc2c(C)cccc2C)cc1`: 766 s; for `COCc1cc(=O)n(Cc2ncc(C)c(OC)c2C)c(N2CCCC2)n1`: 608 s.
With `COc1ccc(CNC(=O)c2ccc3c(c2)N(C)C(=O)c2ccccc2O3)cc1`, the RP-LC retention time turned out to be 863 s.
The same measure for `O=C(NC1CCCCC1)N1CCC(N2C(=O)C3(CCCCC3)C2c2ccncc2)CC1` (stereo not drawn): 659 s.
The same measure for `O=C(CN1C(=O)c2ccccc2C1=O)OCc1nc2ccccc2s1`: 840 s; for `COc1cc(NC(=O)N2CCC3(CC2)Nc2ccccc2-n2cccc23)cc(OC)c1OC`: 920 s.
The same measure for `Cc1oc2nc3c(c(NC(=O)CN4CCCC4=O)c2c1C)CCCC3`: 687 s; for `O=C([C@@H]1C[C@H](F)CN1S(=O)(=O)c1ccc(F)c(F)c1)N1CCCCC1`: 780 s; for `CCOc1ccccc1NC(=O)C1CCN(S(=O)(=O)c2ccc3c(c2)sc(=O)n3C)CC1`: 931 s.
In turn, `Cc1ccccc1NC(=O)N1CCc2nc(-c3ccc(Cl)cc3)ncc2C1` came in with an RP-LC retention time of 1020 s.
For `COCCC1CCN(C(=O)COc2ccccc2)CC1`, the RP-LC retention time was 800 s.
The molecule `O=C(Cn1cccc(-c2nc(-c3ccccc3)no2)c1=O)Nc1ccc(Br)cc1` had an RP-LC retention time of 968 s.
As for `O=C(NC1CCCCCC1)C1CCN(C(=O)c2ncn3c2COC(c2ccccc2)C3)CC1` (stereo not drawn), the RP-LC retention time was 794 s.
`Cc1cc(S(=O)(=O)NCC2CCCO2)cc([N+](=O)[O-])c1C` (stereo not drawn): the RP-LC retention time stood at 778 s.
The same measure for `COc1ccc(CNC(=O)c2nnc(-c3ccc(S(=O)(=O)N(C)C)cc3)o2)cc1`: 845 s; for `O=C(c1ccc(S(=O)(=O)c2cccc(Cl)c2)c([N+](=O)[O-])c1)N1CCN(c2ccccn2)CC1`: 722 s; for `Cc1ccc(Sc2nccnc2N2CCCC(C(=O)NCc3ccccc3Cl)C2)cc1` (stereo not drawn): 1150 s.
The same measure for `O=C(NC1CCCC1)C1CCCN(c2nc3ccsc3c(=O)n2Cc2ccccc2)C1` (stereo not drawn): 895 s.
The same measure for `COc1ccccc1-c1nc(C2CC(=O)N(c3ccccc3)C2)no1` (stereo not drawn): 894 s.
`CCOC(=O)C1CCCN(C(=O)c2cc3c(=O)n(C)c(=O)n(C)c3s2)C1` (stereo not drawn) displayed an RP-LC retention time of 674 s.
Next, `CCOc1ccc(S(=O)(=O)N2CCCC2c2nc(-c3cccc(Cl)c3)no2)cc1` (stereo not drawn): 1230 s; `CC1(C)CC(=O)c2cn(-c3ccc(F)cc3)c(=O)c(C(=O)NC3CCCC3)c2C1`: 957 s; `COC(=O)c1ccccc1Nc1c(-c2cccc(Br)c2)nc2cnccn12`: 1090 s.
The same measure for `O=C(c1ccc2ccccc2n1)N1CCN(C(=O)c2nnn3c2COC(c2ccccc2)C3)CC1` (stereo not drawn): 833 s.
Next, `CCNc1nc(C)cc(N2CCN(C(=O)Nc3cccc(Cl)c3)CC2)n1`: 695 s; `CCOC(=O)c1noc2nc(C)nc(N3CCN(c4ccc(Cl)cc4)CC3)c12`: 1190 s.
Take `Cc1ccccc1S(=O)(=O)N1CCCN(c2ccc(=O)n(-c3ccccc3)n2)CC1`: the RP-LC retention time came to 859 s.
Molecule `CCc1ccccc1NC(=O)c1cc(C)n2nccc2n1` had an RP-LC retention time of 1030 s.
`COc1cc(C(CC(=O)NC2CCCC2)N2Cc3ccccc3C2=O)cc(OC)c1OC` (stereo not drawn) displayed an RP-LC retention time of 755 s.
The same measure for `CC1(C(=O)NCc2ccccc2)CN(S(=O)(=O)c2ccccc2)CC(=O)N1C1CCCC1` (stereo not drawn): 787 s; for `Cc1nn(CCC(=O)Nc2cccc(Cl)c2)c(=O)c2nn(-c3ccccc3)c(C)c12`: 867 s.
Next, `CN1CCN(CCCNC(=O)c2cc3occc3c(Nc3ccc(F)cc3)n2)CC1`: 616 s.
Next, `CCc1nc(-c2csc(S(=O)(=O)N3CCCC(C(=O)N4CCOCC4)C3)c2)no1` (stereo not drawn): 796 s; `Cc1cc(C(=O)NCC(C)C)c2cccc(Cl)c2n1`: 770 s.
`O=C(NC1CCN(c2cc(-c3ccccc3)[nH]n2)C1)c1ccc(F)c(F)c1` (stereo not drawn) registered an RP-LC retention time of 739 s.
The same measure for `COc1ccc(C(=O)NCCc2c[nH]c3ccc(F)cc23)cc1OC`: 758 s; for `COc1ccc2c(c1)-c1nc(NC(=O)c3ccc(Cl)cc3)sc1CC2`: 1180 s; for `CCn1c(CN(C)C(=O)Nc2ccc(Br)cc2F)nc2cc(C(=O)N(C)C)ccc21`: 650 s.
`CC(C)Oc1ccc(-c2noc(CN3N=NC4C(=O)N(c5cccc(F)c5)C(=O)C43)n2)cc1` (stereo not drawn) came in with an RP-LC retention time of 1050 s.

These data come from the METLIN SMRT retention time set (Domingo-Almenara et al. 2019).
